Twelve compounds from US8722678B2 (priority 2010, dated 2014) can be followed below.

Where two headings read alike, the source gives them in different places.

In test [1] the test system is Plasmopara viticola. As to conditions: in vivo.
The test system of test [2] is Phytophthora infestans. The format is in vivo.
Test [3] deals with Phytophthora infestans. Description: whole plant or invertebrate. The format is in vivo. To be noted: for Test B rating (100 = 100% disease control, 0 = no disease control relative to the controls): in vivo.
[4] abbreviates: tomato seedlings, sprayed to run-off 17 h after inoculation, application rate not given for unstarred values (40 ppm suspension mentioned).

For `CC(=NO)c1csc(C2CCN(C(=O)Cn3nc(C(F)(F)F)cc3C)CC2)n1` [Compound 10, 1-[4-[4-[1-(hydroxyimino)ethyl)-2-thiazolyl]-1-piperidinyl]-2-[5-methyl-3-(trifluoromethyl)-1H-pyrazol-1-yl]ethanone], the “Test A rating (100 = 100% disease control, 0 = no disease control relative to the controls)” value in test [1] amounted to 71%.
Take `Cc1cc(C(F)(F)F)nn1CC(=O)N1CCC(c2nc(C(CC(O)c3c(F)cccc3F)=NO)cs2)CC1` (stereo not drawn) [Compound 13, 3-(2,6-difluorophenyl)-3-hydroxy-1-[2-[1-[2-[5-methyl-3-(trifluoromethyl)-1H-pyrazol-1-yl]acetyl]-4-piperidinyl]-4-thiazolyl]-1-propanone 1-oxime]: the “Test A rating (100 = 100% disease control, 0 = no disease control relative to the controls)” value in test [1] stood at 93%. The “Test C rating (100 = 100% disease control, 0 = no disease control relative to the controls)” value in test [2] (setting [4]) is recorded as 97%.
In the case of “1-[4-[4-[(hydroxyimino)phenylmethyl]-2-thiazolyl]-1-piperidinyl-2-[5-methyl-3-(trifluoromethyl)-1H-pyrazol-1-yl]ethanone [Compound 16]”, in test [1], the “Test A rating (100 = 100% disease control, 0 = no disease control relative to the controls)” value was 0%. The “Test B rating (100 = 100% disease control, 0 = no disease control relative to the controls)” value in test [3] turned out to be 89%. The “Test C rating (100 = 100% disease control, 0 = no disease control relative to the controls)” value in test [2] (in vivo) is listed as 0%.
As to `CC(=O)ON=C(C=Cc1c(F)cccc1F)c1csc(C2CCN(C(=O)Cn3nc(C(F)(F)F)cc3C)CC2)n1` [Compound 23, 3-(2,6-difluorophenyl)-1-[2-[1-[2-[5-methyl-3-(trifluoromethyl)-1H-pyrazol-1-yl]acetyl]-4-piperidinyl]-4-thiazolyl]-2-propen-1-one 1-(O-acetyloxime)], the “Test A rating (100 = 100% disease control, 0 = no disease control relative to the controls)” value in test [1] was 99%. Also, in test [2] (setting [4]), the “Test C rating (100 = 100% disease control, 0 = no disease control relative to the controls)” value worked out at 99%.
For `CON=C(C=Cc1c(F)cccc1F)c1csc(C2CCN(C(=O)Cn3nc(C(F)(F)F)cc3C)CC2)n1` [Compound 19, 3-(2,6-difluorophenyl)-1-[2-[1-[2-[5-methyl-3-(trifluoromethyl)-1H-pyrazol-1-yl]acetyl]-4-piperidinyl]-4-thiazolyl]-2-propen-1-one 1-(O-methyloxime)], the “Test A rating (100 = 100% disease control, 0 = no disease control relative to the controls)” value in test [1] was found to be 83%.
For `Cc1cc(C(F)(F)F)nn1CC(=O)N1CCC(c2nc(C=NO)cs2)CC1` [Compound 8, 4-[4-[(hydroxyimino)methyl]-2-thiazolyl]-1-[[5-methyl-3-(trifluoromethyl)-1H-pyrazol-1-yl]acetyl]piperidine], the “Test A rating (100 = 100% disease control, 0 = no disease control relative to the controls)” value in test [1] turned out to be 99%. The “Test C rating (100 = 100% disease control, 0 = no disease control relative to the controls)” value in test [2] (setting [4]) came out at 97%.
For the compound `Cc1cc(C(F)(F)F)nn1CC(=O)N1CCC(c2nc(C(CCc3c(F)cccc3F)=NO)cs2)CC1` [Compound 21, 3-(2,6-difluorophenyl)-1-[2-[1-[2-[5-methyl-3-(trifluoromethyl)-1H-pyrazol-1-yl]acetyl]-4-piperidinyl]-4-thiazolyl]-1-propanone 1-oxime], the “Test A rating (100 = 100% disease control, 0 = no disease control relative to the controls)” value in test [1] came out at 57%.
As for `CCOC(=O)/C(=N\O)c1csc(C2CCN(C(=O)Cn3nc(C(F)(F)F)cc3C)CC2)n1` [Compound 14], in test [1], the “Test A rating (100 = 100% disease control, 0 = no disease control relative to the controls)” value is recorded as 0%. Moreover, in test [2] (setting [4]), the “Test C rating (100 = 100% disease control, 0 = no disease control relative to the controls)” value is reported as 9%.
In the same order, the values of `Cc1cc(C(F)(F)F)nn1CC(=O)N1CCC(c2nc(C(C=Cc3c(F)cccc3F)=NO)cs2)CC1` [Compound 11, 3-(2,6-difluorophenyl)-1-[2-[1-[2-[5-methyl-3-(trifluoromethyl)-1H-pyrazol-1-yl]acetyl]-4-piperidinyl]-4-thiazolyl]-2-propen-1-one 1-oxime] are 100% and 98%.
As for `Cc1cc(C(F)(F)F)nn1CC(=O)N1CCC(c2nc(C(CC(O[Si](C)(C)C(C)(C)C)c3c(F)cccc3F)=NO)cs2)CC1` (stereo not drawn) [Compound 12, 3-(2,6-difluorophenyl)-3-[[(1,1-dimethylethyl)dimethylsilyl]oxy]-1-[2-[1-[2-[5-methyl-3-(trifluoromethyl)-1H-pyrazol-1-yl]acetyl]-4-piperidinyl]-4-thiazolyl]-1-propanone 1-oxime], the “Test A rating (100 = 100% disease control, 0 = no disease control relative to the controls)” value in test [1] was found to be 0%. Also, the pest or weed control at 200 ppm in test [3] (Phytophthora infestans, in Solanum lycopersicum, read-out: Test B rating (100 = 100% disease control, 0 = no disease control relative to the controls)) was 40%.
`Cc1cc(C(F)(F)F)nn1CC(=O)N1CCC(c2nc(C=NOC(C)c3ccccc3)cs2)CC1` (stereo not drawn) [Compound 22, 2-[1-[2-[5-methyl-3-(trifluoromethyl)-1H-pyrazol-1-yl]acetyl]-4-piperidinyl]-4-thiazolecarboxaldehyde 4-[O-(1-phenylethyl)oxime]]: the “Test A rating (100 = 100% disease control, 0 = no disease control relative to the controls)” value in test [1] was found to be 97%.
In the case of “1-[4-[4-[(hydroxyimino)phenylmethyl]-2-thiazolyl]-1-piperidinyl-2-[5-methyl-3-(trifluoromethyl)-1H-pyrazol-1-yl]ethanone [Compound 15]”, the “Test A rating (100 = 100% disease control, 0 = no disease control relative to the controls)” value in test [1] worked out at 55%. The “Test B rating (100 = 100% disease control, 0 = no disease control relative to the controls)” value in test [3] came to 100%.
